Molecular target: T1, Inhibitor of nuclear factor kappa-B kinase subunit beta (Homo sapiens, UniProt O14920)
T1 sequence (O14920 whole entry): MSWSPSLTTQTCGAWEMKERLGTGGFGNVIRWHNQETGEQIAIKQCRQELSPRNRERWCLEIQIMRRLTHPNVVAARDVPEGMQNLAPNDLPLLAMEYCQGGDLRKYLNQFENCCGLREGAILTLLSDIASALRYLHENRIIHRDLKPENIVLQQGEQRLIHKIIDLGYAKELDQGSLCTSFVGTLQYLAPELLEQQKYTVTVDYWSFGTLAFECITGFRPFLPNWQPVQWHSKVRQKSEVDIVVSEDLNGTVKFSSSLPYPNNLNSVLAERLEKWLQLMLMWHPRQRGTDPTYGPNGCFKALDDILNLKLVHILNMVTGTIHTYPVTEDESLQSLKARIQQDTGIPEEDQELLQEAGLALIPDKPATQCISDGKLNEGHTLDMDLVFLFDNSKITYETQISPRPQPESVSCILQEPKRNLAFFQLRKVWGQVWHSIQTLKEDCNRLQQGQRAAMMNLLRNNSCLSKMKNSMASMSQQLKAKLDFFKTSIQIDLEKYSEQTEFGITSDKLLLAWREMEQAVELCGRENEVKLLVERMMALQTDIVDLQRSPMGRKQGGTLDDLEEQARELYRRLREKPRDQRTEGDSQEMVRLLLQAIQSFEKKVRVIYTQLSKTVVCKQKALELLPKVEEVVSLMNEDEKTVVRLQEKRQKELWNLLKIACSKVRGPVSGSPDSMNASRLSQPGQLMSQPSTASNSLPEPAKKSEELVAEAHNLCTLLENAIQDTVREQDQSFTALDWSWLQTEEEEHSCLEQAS
Experiment: Inhibition of human recombinant C-terminal FLAG-epitope-tagged IKK2 expressed in baculovirus using biotinylated IkappaBalpha peptide as substrate assessed as decrease in [gamma-33P]-ATP incorporation in substrate after 30 mins by scintillation counting method

SMILES | IC50 [µM]
NC(=O)c1nn(-c2ccc(S(N)(=O)=O)cc2)c2c1CCc1ccc(NS(=O)(=O)c3cccc(Cl)c3)cc1-2 | 1 to 10
CS(=O)(=O)c1ccc(-n2nc(C(N)=O)c3c2-c2cc(NC(=O)[C@@H](N)Cc4c[nH]cn4)ccc2CC3)cc1 | 1 to 10
CC(C)(O)/C=C/c1ccc(-n2nc(C(N)=O)c3c2-c2cc(NC(=O)c4cccnc4Cl)ccc2CC3)cc1 | 1 to 10
NC(=O)c1nn(-c2ccc(S(N)(=O)=O)cc2)c2c1CCc1ccc(N)cc1-2 | ≤ 1
Cc1cccc(C(=O)Nc2ccc3c(c2)-c2c(c(C(N)=O)nn2-c2ccc(S(C)(=O)=O)cc2)CC3)c1 | 1 to 10
NC(=O)c1nn(-c2ccc(S(N)(=O)=O)cc2)c2c1CCc1ccc(NC(=O)c3ccc(F)cc3)cc1-2 | ≤ 1
CC(=O)Nc1ccc2c(c1)-c1c(c(C(N)=O)nn1-c1ccc(S(=O)(=O)N(C)C)cc1)CC2 | 1 to 10
NC(=O)c1nn(-c2ccc(S(N)(=O)=O)cc2)c2c1CCc1ccc(NC(=O)c3ccccc3OC(F)(F)F)cc1-2 | ≤ 1
NC(=O)c1nn(-c2ccc(-c3cccc(CO)c3)cc2)c2c1CCc1ccc(NC(=O)c3ccccc3Cl)cc1-2 | 1 to 10
NC(=O)c1nn(-c2ccc(S(N)(=O)=O)cc2)c2c1CCc1ccc(NS(=O)(=O)c3ccc(Cl)cc3)cc1-2 | 1 to 10
CS(=O)(=O)c1ccc(-n2nc(C(N)=O)c3c2-c2cc(NC(=O)C4CCC4)ccc2CC3)cc1 | 1 to 10
C[C@H]1CN(c2cc(C(=O)Nc3ccc4c(c3)-c3c(c(C(N)=O)nn3-c3ccc(F)cc3)CC4)c(Cl)cn2)CCN1 | ≤ 1
CS(=O)(=O)c1ccc(-n2nc(C(N)=O)c3c2-c2cc(NC(=O)c4cnccc4Cl)ccc2CC3)cc1 | 1 to 10
NC(=O)c1nn(-c2ccc(S(N)(=O)=O)cc2)c2c1CCc1ccc(NS(=O)(=O)c3ccc(F)cc3F)cc1-2 | 10 to 100
CN1CCN(c2ccc(Cl)c(C(=O)Nc3ccc4c(c3)-c3c(c(C(N)=O)nn3-c3ccc(S(C)(=O)=O)cc3)CC4)c2)CC1 | < 1
COc1ccc(CNc2ccc3c(c2)-c2c(c(C(N)=O)nn2-c2ccc(S(N)(=O)=O)cc2)CC3)cc1 | 1 to 10
CN(C)S(=O)(=O)c1ccc(-n2nc(C(N)=O)c3c2-c2cc(NC(=O)c4cccc(Cl)c4)ccc2CC3)cc1 | 1 to 10
CN(C)CCc1cc(C(=O)Nc2ccc3c(c2)-c2c(c(C(N)=O)nn2-c2ccc(F)cc2)CC3)c(Cl)cn1 | ≤ 1
CC(=O)Nc1nc(C)c(S(=O)(=O)Nc2ccc3c(c2)-c2c(c(C(N)=O)nn2-c2ccc(S(N)(=O)=O)cc2)CC3)s1 | 1 to 10
NC(=O)c1nn(-c2ccc(S(N)(=O)=O)cc2)c2c1CCc1ccc(NCc3ccccc3)cc1-2 | 1 to 10
CS(=O)(=O)Nc1ccc2c(c1)-c1c(c(C(N)=O)nn1-c1cccc(O)c1)CC2 | 1 to 10
NC(=O)c1nn(-c2ccc(-n3cccc3)cc2)c2c1CCc1ccc(NC(=O)c3ccccc3Cl)cc1-2 | 1 to 10
COc1ccc(-c2ccc(-n3nc(C(N)=O)c4c3-c3cc(NC(=O)c5ccccc5Cl)ccc3CC4)cc2)cc1OC | 1 to 10

SMILES | IC50 [µM]
Cc1cccc(S(=O)(=O)Nc2ccc3c(c2)-c2c(c(C(N)=O)nn2-c2ccc(S(N)(=O)=O)cc2)CC3)c1 | 10 to 100
Cc1c(C(=O)Nc2ccc3c(c2)-c2c(c(C(N)=O)nn2-c2ccc(S(C)(=O)=O)cc2)CC3)cccc1[N+](=O)[O-] | 1 to 10
NC(=O)c1nn(-c2ccc(S(N)(=O)=O)cc2)c2c1CCc1ccc(NC(=O)c3cccc(Cl)c3)cc1-2 | ≤ 1
CCS(=O)(=O)c1ccc(-n2nc(C(N)=O)c3c2-c2cc(NS(C)(=O)=O)ccc2CC3)cc1 | 1 to 10
NC(=O)c1nn(-c2ccc(S(N)(=O)=O)cc2)c2c1CCc1ccc(NC(=O)C3CC3)cc1-2 | 1 to 10
CC1Cc2c(C(N)=O)nn(-c3ccc(F)cc3)c2-c2cc(NC(=O)c3cc(N4CCN(C)CC4)ccc3Cl)ccc21 (centres undefined) | ≤ 1
Cc1ccc(CNc2ccc3c(c2)-c2c(c(C(N)=O)nn2-c2ccc(S(N)(=O)=O)cc2)CC3)cc1 | 10 to 100
CN(C)CCCOc1ccc(-n2nc(C(N)=O)c3c2-c2cc(NC(=O)c4ccccc4Cl)ccc2CC3)cc1 | 1 to 10
NC(=O)c1nn(-c2ccc(OCc3ccccc3)cc2)c2c1CCc1ccc(NC(=O)c3cccnc3Cl)cc1-2 | 1 to 10
NC(=O)c1nn(-c2ccc(S(N)(=O)=O)cc2)c2c1CCc1ccc(NC(=O)c3c(Cl)cccc3Cl)cc1-2 | ≤ 1
C[C@@H]1CN(c2cc(C(=O)Nc3ccc4c(c3)-c3c(c(C(N)=O)nn3-c3ccc(F)cc3)CC4)c(Cl)cn2)C[C@H](C)N1C | ≤ 1
CCCCC(=O)Nc1ccc2c(c1)-c1c(c(C(N)=O)nn1-c1ccc(S(N)(=O)=O)cc1)CC2 | 1 to 10
CNC(=O)/C=C/c1ccc(-n2nc(C(N)=O)c3c2-c2cc(NS(C)(=O)=O)ccc2CC3)cc1 | ≤ 1
CCCC(=O)Nc1ccc2c(c1)-c1c(c(C(N)=O)nn1-c1ccc(S(N)(=O)=O)cc1)CC2 | 1 to 10
C[S+]([O-])c1ccc(Cl)c(C(=O)Nc2ccc3c(c2)-c2c(c(C(N)=O)nn2-c2ccc(O)cc2)CC3)c1 (centres undefined) | ≤ 1
NC(=O)c1nn(-c2ccc3c(c2)OCO3)c2c1CCc1ccc(NC(=O)c3ccoc3)cc1-2 | 1 to 10
CSc1ccc(-n2nc(C(N)=O)c3c2-c2cc(NC(=O)c4ccccc4Cl)ccc2CC3)cc1 | 1 to 10
CN(C)c1cccc2c(S(=O)(=O)Nc3ccc4c(c3)-c3c(c(C(N)=O)nn3-c3ccc(S(N)(=O)=O)cc3)CC4)cccc12 | 1 to 10
COc1ccc(S(=O)(=O)Nc2ccc3c(c2)-c2c(c(C(N)=O)nn2-c2ccc(S(N)(=O)=O)cc2)CC3)cc1OC | 10 to 100
NC(=O)c1nn(-c2ccc(S(N)(=O)=O)cc2)c2c1CCc1ccc(NCc3ccc(Cl)cc3)cc1-2 | 10 to 100
C#Cc1ccc(-n2nc(C(N)=O)c3c2-c2cc(NC(=O)c4cccnc4Cl)ccc2CC3)cc1 | 1 to 10
CC(C)N1CCN(c2cc(C(=O)Nc3ccc4c(c3)-c3c(c(C(N)=O)nn3-c3ccc(F)cc3)CC4)c(Cl)cn2)CC1 | ≤ 1
CN1CCN(c2ccc(Cl)c(C(=O)Nc3ccc4c(c3)-c3c(c(C(N)=O)nn3-c3ccc5c(c3)OCO5)CC4)c2)CC1 | ≤ 1

SMILES | IC50 [µM]
NC(=O)c1nn(-c2ccc(Cl)cc2)c2c1CCc1ccc(NC(=O)c3ccccc3Cl)cc1-2 | ≤ 1
C[C@H]1CN(c2cc(C(=O)Nc3ccc4c(c3)-c3c(c(C(N)=O)nn3-c3ccc(F)cc3)CC4)c(Cl)cn2)CCN1C | ≤ 1
NC(=O)c1nn(-c2ccc(-c3cccc(N)c3)cc2)c2c1CCc1ccc(NC(=O)c3ccccc3Cl)cc1-2 | 1 to 10
NC(=O)c1nn(-c2ccc(S(N)(=O)=O)cc2)c2c1CCc1ccc(NS(=O)(=O)Cc3ccccc3)cc1-2 | 1 to 10
NC(=O)c1nn(-c2ccc(F)cc2)c2c1CCc1ccc(NC(=O)c3nc(N4CCOCC4)ccc3Cl)cc1-2 | 1 to 10
CN(C)C/C=C/c1ccc(-n2nc(C(N)=O)c3c2-c2cc(NC(=O)c4ccccc4Cl)ccc2CC3)cc1 | 1 to 10
Cc1ccccc1C(=O)Nc1ccc2c(c1)-c1c(c(C(N)=O)nn1-c1ccc(S(N)(=O)=O)cc1)CC2 | ≤ 1
CCN1CCN(c2cc(C(=O)Nc3ccc4c(c3)-c3c(c(C(N)=O)nn3-c3ccc(F)cc3)CC4)c(Cl)cn2)CC1 | ≤ 1
NC(=O)c1nn(-c2ccc(S(N)(=O)=O)cc2)c2c1CCc1ccc(NS(=O)(=O)c3cc(C(F)(F)F)cc(C(F)(F)F)c3)cc1-2 | 1 to 10
NC(=O)c1nn(-c2ccc(S(N)(=O)=O)cc2)c2c1CCc1ccc(NC(=O)c3ccccc3F)cc1-2 | ≤ 1
NC(=O)c1nn(-c2ccc3c(c2)OCO3)c2c1CCc1ccc(NC(=O)CNCC3CC3)cc1-2 | 1 to 10
NC(=O)c1nn(-c2ccc(Cl)cc2)c2c1CCc1ccc(NC(=O)c3cnccc3Cl)cc1-2 | ≤ 1
N#Cc1cc(C(=O)Nc2ccc3c(c2)-c2c(c(C(N)=O)nn2-c2ccc(F)cc2)CC3)c(Cl)cn1 | ≤ 1
Cc1cccc(C(=O)Nc2ccc3c(c2)-c2c(c(C(N)=O)nn2-c2ccc(S(N)(=O)=O)cc2)CC3)c1 | ≤ 1
NC(=O)c1nn(-c2ccc(C(F)(F)F)cc2)c2c1CCc1ccc(N)cc1-2 | 1 to 10
NC(=O)c1nn(-c2ccc3c(c2)OCO3)c2c1CCc1ccc(NC(=O)c3ccc(Cl)c(N)c3)cc1-2 | 1 to 10
CN1CCN(c2cc(C(=O)Nc3ccc4c(c3)-c3c(c(C(N)=O)nn3-c3ccc5c(c3)OCO5)CC4)c(Cl)cn2)CC1 | ≤ 1
NC(=O)c1nn(-c2ccc(S(N)(=O)=O)cc2)c2c1CCc1ccc(NC(=O)c3ccco3)cc1-2 | 10 to 100
CC(C)c1ccc(-n2nc(C(N)=O)c3c2-c2cc(NC(=O)c4ccccc4Cl)ccc2CC3)cc1 | 1 to 10
CS(=O)(=O)c1ccc(-n2nc(C(N)=O)c3c2-c2cc(NC(=O)c4cc(N=[N+]=[N-])ccc4[N+](=O)O)ccc2CC3)cc1 | ≤ 1
NC(=O)c1nn(-c2ccc3c(c2)OCO3)c2c1CCc1ccc(NC(=O)c3cc(CCN4CCOCC4)ncc3Cl)cc1-2 | ≤ 1
NC(=O)c1nn(-c2ccc(S(N)(=O)=O)cc2)c2c1CCc1ccc(NS(=O)(=O)c3ccc(Cl)cc3Cl)cc1-2 | 1 to 10
NC(=O)c1nn(-c2ccc(S(N)(=O)=O)cc2)c2c1CCc1ccc(NS(=O)(=O)c3cccc(C(F)(F)F)c3)cc1-2 | 10 to 100
